Assays:
[1] = target: T1, glutathione peroxidase 4 (GPX4) (Homo sapiens, UniProt P36969); assay: GPX4 assay kit; format: biochemical; conditions: read-out: % enhancement at 100 μM
T1 sequence (P36969 28-197): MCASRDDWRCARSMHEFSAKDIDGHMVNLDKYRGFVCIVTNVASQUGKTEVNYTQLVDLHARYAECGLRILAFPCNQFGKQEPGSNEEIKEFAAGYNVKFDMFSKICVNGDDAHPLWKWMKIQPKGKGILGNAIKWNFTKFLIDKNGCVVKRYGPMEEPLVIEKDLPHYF

[2] = target: T1, glutathione peroxidase 4 (GPX4); assay: GPX4 inhibitor screening assay kit; format: biochemical

Row | activation at 100 µM [1] [%] | IC50 [2] [µM] | SMILES
1 | 19 |  | O=C(OC[C@H]1O[C@@H](OC(=O)c2cc(O)c(O)c(OC(=O)c3cc(O)c(O)c(O)c3)c2)[C@H](OC(=O)c2cc(O)c(O)c(OC(=O)c3cc(O)c(O)c(O)c3)c2)[C@@H](OC(=O)c2cc(O)c(O)c(OC(=O)c3cc(O)c(O)c(O)c3)c2)[C@@H]1OC(=O)c1cc(O)c(O)c(OC(=O)c2cc(O)c(O)c(O)c2)c1)c1cc(O)c(O)c(OC(=O)c2cc(O)c(O)c(O)c2)c1 [TA, tannic acid]
2 |  | 17.17 ± 0.17 | COC(=O)c1ccc([C@H]2c3[nH]c4ccccc4c3C[C@H](C(=O)OC)N2C(=O)CCl)cc1 [RSL3]

Reference: PMC10498722 (Chemical Science, 2023)
